Experimental data as given in ChEMBL document CHEMBL1201862, “PubChem BioAssay data set” (2004).
Calls of active or inactive are those of the source.

Tests used:
HeLa = assay: HeLa cell cytotoxicity, dose response, cytotoxicity control for MITF activator project, CellTiter-Glo luminescence, cherry-pick samples (AID 540259); assay type: functional, cell-based; settings: Homo sapiens
[1] = target: Glucose-6-phosphate 1-dehydrogenase (Homo sapiens, UniProt P11413); assay: human G6PD enzyme inhibitors, dose response, selectivity assay for P. falciparum G6PD inhibitor project, biochemical, fluorescence (AID 504792); assay type: functional
[2] = target: T1, Endoribonuclease toxin MazF (Escherichia coli K-12, UniProt P0AE70); assay: MazF toxin RNase activators, dose response, biochemical, fluorescence, single-stranded RNA substrate, uHTS hits (AID 588481); assay type: functional
T1 sequence (P0AE70 whole entry): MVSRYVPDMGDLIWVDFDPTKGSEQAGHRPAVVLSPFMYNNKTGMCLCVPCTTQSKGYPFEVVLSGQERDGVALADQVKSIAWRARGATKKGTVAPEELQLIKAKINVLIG

[3] = target: T1, Endoribonuclease toxin MazF; assay: fluorescent RNA oligo signal without MazF, dose response, counter-screen for MazEF activator project, biochemical, fluorescence, single-stranded RNase substrate (AID 588502); assay type: functional
Genome polyprotein = Genome polyprotein (dengue virus type 2, UniProt P29990); assay: Dengue-2 NS5 methyltransferase inhibitors, primary screen, biochemical, confirmation dose response (AID 588689); assay type: functional
[4] = target: T2, Corticotropin-releasing factor receptor 2/Corticotropin-releasing factor-binding protein (Homo sapiens, UniProt P24387+Q13324); assay: activators of CRF receptor 2 with binding protein – uHTS hits, confirmation (AID 602473); assay type: functional; settings: read-out: EC50_Mean
T2 sequence (Q13324 whole entry): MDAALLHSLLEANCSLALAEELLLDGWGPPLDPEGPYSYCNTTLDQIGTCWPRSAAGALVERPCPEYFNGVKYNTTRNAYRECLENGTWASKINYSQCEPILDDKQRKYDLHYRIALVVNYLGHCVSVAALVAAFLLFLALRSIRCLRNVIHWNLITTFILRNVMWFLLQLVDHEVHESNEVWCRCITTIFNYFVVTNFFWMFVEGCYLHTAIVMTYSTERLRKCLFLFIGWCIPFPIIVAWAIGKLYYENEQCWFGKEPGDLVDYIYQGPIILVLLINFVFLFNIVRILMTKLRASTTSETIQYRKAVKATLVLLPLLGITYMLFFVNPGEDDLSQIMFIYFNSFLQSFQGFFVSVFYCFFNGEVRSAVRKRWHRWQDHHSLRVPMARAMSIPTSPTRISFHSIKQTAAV
T2 sequence (P24387 whole entry): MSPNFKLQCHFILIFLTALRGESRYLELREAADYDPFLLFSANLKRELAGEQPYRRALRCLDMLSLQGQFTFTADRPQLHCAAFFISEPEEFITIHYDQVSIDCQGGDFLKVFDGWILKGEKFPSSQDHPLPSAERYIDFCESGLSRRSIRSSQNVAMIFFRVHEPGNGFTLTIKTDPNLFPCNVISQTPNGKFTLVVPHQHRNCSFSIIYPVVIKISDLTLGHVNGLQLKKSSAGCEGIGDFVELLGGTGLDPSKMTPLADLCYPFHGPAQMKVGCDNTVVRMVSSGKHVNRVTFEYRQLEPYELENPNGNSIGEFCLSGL

[5] = target: T3, Sentrin-specific protease 1 (Homo sapiens, UniProt Q9P0U3); assay: potency of human SENP1 inhibitors, dose response, biochemical, kinetic FRET (AID 651697); assay type: functional; settings: read-out: IC50_Mean
T3 sequence (Q9P0U3 whole entry): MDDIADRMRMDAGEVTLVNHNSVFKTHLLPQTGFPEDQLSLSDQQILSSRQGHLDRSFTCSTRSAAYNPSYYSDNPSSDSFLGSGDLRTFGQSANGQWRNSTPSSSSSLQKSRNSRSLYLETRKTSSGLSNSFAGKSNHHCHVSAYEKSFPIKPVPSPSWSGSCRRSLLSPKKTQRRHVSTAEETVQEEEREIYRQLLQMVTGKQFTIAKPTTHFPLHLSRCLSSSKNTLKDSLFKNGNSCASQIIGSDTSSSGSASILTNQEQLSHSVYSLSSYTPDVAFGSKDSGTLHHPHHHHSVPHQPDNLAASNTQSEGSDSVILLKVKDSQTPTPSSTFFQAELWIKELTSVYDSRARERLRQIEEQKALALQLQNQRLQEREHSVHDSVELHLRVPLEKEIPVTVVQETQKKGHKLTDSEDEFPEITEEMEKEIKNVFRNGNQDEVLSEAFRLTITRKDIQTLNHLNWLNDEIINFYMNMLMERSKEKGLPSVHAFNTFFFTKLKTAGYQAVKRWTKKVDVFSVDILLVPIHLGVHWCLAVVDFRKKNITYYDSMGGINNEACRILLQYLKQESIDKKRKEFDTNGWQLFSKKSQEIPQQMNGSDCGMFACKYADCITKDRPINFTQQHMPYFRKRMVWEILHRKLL

[6] = target: T3, Sentrin-specific protease 1; assay: Dose response confirmation of small molecule inhibitors of the catalytic domain of the SUMO protease, SENP1 in a FRET assay.; assay type: functional; settings: read-out: IC50_Mean
[7] = target: T4, Carboxy-terminal domain RNA polymerase II polypeptide A small phosphatase 1 (Homo sapiens, UniProt Q9GZU7); assay: inhibitors of CTDSP1, concentration-response testing, biochemical assay, absorbance-based, actives from ultra-high-throughput screening (AID 540297); assay type: functional
T4 sequence (Q9GZU7 whole entry): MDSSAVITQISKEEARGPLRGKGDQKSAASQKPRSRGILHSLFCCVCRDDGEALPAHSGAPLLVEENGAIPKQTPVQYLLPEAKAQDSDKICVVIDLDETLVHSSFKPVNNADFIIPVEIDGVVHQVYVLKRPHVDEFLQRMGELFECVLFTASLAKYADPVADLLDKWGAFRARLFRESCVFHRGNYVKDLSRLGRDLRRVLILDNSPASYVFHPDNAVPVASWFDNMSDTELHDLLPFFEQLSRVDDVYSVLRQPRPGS

[8] = target: T5, Short transient receptor potential channel 4 (Mus musculus, UniProt Q9QUQ5); assay: mouse TRPC4 channel activators, dose response, cell-based, HEK293 TRPC4/mu-opioid, Fluo-4 calcium (AID 434937); assay type: functional
T5 sequence (Q9QUQ5 whole entry): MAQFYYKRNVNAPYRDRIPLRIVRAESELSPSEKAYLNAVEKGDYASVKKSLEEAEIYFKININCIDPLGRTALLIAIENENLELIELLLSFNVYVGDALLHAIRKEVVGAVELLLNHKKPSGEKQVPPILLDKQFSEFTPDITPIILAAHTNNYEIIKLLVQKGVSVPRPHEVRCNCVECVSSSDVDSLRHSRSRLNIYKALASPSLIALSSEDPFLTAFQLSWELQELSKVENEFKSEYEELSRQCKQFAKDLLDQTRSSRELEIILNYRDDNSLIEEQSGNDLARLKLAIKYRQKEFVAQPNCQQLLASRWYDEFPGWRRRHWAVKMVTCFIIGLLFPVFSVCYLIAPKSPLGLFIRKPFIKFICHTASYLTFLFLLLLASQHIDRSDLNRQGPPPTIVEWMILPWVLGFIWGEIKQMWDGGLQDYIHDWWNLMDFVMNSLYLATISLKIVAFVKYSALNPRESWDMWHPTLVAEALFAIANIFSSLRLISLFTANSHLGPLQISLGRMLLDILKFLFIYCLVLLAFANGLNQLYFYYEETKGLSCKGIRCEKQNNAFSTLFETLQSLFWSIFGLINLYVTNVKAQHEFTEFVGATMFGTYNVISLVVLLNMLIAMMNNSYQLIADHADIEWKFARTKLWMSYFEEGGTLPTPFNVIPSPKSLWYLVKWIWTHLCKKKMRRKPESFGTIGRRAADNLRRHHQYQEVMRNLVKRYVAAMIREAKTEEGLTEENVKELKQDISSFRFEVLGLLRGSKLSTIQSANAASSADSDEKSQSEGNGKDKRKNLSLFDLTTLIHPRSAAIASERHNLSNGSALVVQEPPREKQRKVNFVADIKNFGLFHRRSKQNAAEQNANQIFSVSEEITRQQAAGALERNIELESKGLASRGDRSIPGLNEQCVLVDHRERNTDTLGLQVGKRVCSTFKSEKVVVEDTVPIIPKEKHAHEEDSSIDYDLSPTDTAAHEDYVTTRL

Sequence of Glucose-6-phosphate 1-dehydrogenase (P11413 whole entry): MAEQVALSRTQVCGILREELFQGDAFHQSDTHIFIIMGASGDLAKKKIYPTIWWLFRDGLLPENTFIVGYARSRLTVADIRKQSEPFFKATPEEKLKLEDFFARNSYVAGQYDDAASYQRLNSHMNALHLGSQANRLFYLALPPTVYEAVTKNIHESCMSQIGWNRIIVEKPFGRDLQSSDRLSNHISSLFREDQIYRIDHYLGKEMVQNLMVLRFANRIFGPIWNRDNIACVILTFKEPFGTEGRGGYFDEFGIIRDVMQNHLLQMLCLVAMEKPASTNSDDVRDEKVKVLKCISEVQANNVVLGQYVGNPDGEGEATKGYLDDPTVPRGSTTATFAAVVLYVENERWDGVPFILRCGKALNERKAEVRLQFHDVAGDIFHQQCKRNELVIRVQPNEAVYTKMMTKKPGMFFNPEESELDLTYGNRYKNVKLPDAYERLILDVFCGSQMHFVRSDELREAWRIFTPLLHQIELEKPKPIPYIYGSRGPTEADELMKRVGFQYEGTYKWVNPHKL
Sequence of Genome polyprotein (P29990 2492-3391 limits assumed): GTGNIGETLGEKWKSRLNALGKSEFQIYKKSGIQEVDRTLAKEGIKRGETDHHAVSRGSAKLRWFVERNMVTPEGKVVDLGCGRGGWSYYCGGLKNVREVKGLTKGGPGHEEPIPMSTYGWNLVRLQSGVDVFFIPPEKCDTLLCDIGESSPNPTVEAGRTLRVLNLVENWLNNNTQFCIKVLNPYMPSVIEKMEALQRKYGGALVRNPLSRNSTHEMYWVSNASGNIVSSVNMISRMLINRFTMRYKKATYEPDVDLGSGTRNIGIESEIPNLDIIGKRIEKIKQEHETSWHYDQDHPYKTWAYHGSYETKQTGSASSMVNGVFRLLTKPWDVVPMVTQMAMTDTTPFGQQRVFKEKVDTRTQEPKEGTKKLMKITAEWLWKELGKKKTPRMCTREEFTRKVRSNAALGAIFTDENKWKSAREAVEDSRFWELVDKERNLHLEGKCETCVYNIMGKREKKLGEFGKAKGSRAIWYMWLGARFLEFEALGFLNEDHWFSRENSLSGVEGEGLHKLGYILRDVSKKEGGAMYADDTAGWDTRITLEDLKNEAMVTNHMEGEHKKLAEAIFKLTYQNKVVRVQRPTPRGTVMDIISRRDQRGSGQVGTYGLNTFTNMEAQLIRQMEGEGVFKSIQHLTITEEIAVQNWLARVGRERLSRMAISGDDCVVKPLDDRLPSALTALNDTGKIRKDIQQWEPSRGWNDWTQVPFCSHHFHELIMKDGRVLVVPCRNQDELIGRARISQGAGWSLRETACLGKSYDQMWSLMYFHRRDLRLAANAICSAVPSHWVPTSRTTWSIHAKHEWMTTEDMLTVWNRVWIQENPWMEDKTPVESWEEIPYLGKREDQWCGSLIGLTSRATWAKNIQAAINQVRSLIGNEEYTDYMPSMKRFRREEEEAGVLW

How did the AC50 (HeLa) turn out when Cc1cccc(C(=O)Oc2ccc(/C=N/O)cc2)c1 was run?
The AC50 was 41 µM (active).

For Cc1ccsc1/C=N/NC(=O)Nc1ccccc1, which AC50 (HeLa) is on record?
Its AC50 is 60.6 µM (active).

What does the source list for Cn1c(=O)c2[nH]c(-c3ccccc3)c(O)c2n(C)c1=O?
IC50 [1]: > 80 µM (inactive); EC50 [2]: 33.8 µM (inactive); EC50 [3]: 23.3 µM (inactive); IC50 (Genome polyprotein): 18.5 µM (active); EC50 [4]: > 53 µM (inactive); IC50 [5]: 5.99 µM (active); IC50 [6]: 5.27 µM (active)

Which results are given for Cc1cc(N=NC(=O)c2ccccc2O)c2ccccc2c1O?
IC50 [1]: > 80 µM (inactive); IC50 [7]: 5.15 µM (active)

Cc1nc2ccccn2c1P(=S)(N1CCCCC1)N1CCCCC1 was tested. Which EC50 [8] did it give?
The EC50 was 5.96 µM (active).

And the EC50 [4]?
Its EC50 is 23.7 µM (active).

With COc1cc(/C=N/Nc2nncn2N)ccc1OCc1c(C)no[n+]1[O-] as the compound, how does the IC50 [1] read?
Its IC50 is 56.3 µM (inactive).

CCCN(CCC)c1ncnc2c1cnn2-c1ccc(OC)cc1 was tested. Which AC50 (HeLa) did it give?
Its AC50 is 46.3 µM (active).

For COc1ccc(OC)c(/C=N/N(C)c2ccccc2)c1, which AC50 (HeLa) is on record?
The AC50 was 44.7 µM (active).
